The NIST ThermoML archive (doi:10.1021/je800110r)
Several values for one entry are separate records, joined by “and”; a condition that tells them apart may be missing. Identical values can stand only once.

Settings: 283.14 K, Liquid, Vibrating tube method

CCCCCCCCCC [decane]
Settings | mass density
322 kPa | 737.5 kg/m3
338 kPa | 737.7 kg/m3
385 kPa | 737.6 kg/m3
479 kPa | 737.8 kg/m3
514 kPa | 737.8 kg/m3
551 kPa | 737.8 kg/m3
574 kPa | 737.8 kg/m3
589 kPa | 737.8 kg/m3
615 kPa | 737.9 kg/m3
633 kPa | 737.9 kg/m3
651 kPa | 737.9 kg/m3
665 kPa | 737.9 kg/m3
683 kPa | 737.8 kg/m3
700 kPa | 737.8 kg/m3
721 kPa | 737.8 kg/m3
740 kPa | 737.9 kg/m3
763 kPa | 738 kg/m3
783 kPa | 737.9 kg/m3
808 kPa | 738 kg/m3
833 kPa | 738 kg/m3
857 kPa | 738 kg/m3
877 kPa | 738 kg/m3
899 kPa | 738 kg/m3
931 kPa | 738.1 kg/m3
966 kPa | 738.2 kg/m3
995 kPa | 738.1 kg/m3
1025 kPa | 738.1 kg/m3
1066 kPa | 738.2 kg/m3
1103 kPa | 738.2 kg/m3
1133 kPa | 738.1 kg/m3
1173 kPa | 738.3 kg/m3
1217 kPa | 738.3 kg/m3
1247 kPa | 738.2 kg/m3
1299 kPa | 738.3 kg/m3
1359 kPa | 738.3 kg/m3
1404 kPa | 738.5 kg/m3
1536 kPa | 738.5 kg/m3
2661 kPa | 739.4 kg/m3
2677 kPa | 739.3 kg/m3
2694 kPa | 739.3 kg/m3
2848 kPa | 739.5 kg/m3
2888 kPa | 739.4 kg/m3
2910 kPa | 739.5 kg/m3
2926 kPa | 739.5 kg/m3
2942 kPa | 739.5 kg/m3
2959 kPa | 739.6 kg/m3
2987 kPa | 739.6 kg/m3
3024 kPa | 739.7 kg/m3
3042 kPa | 739.6 kg/m3
3053 kPa | 739.6 kg/m3
3064 kPa | 739.7 kg/m3
3084 kPa | 739.6 kg/m3
3192 kPa | 739.6 kg/m3
3239 kPa | 739.7 kg/m3
3249 kPa | 739.8 kg/m3
3261 kPa | 739.8 kg/m3
3321 kPa | 739.8 kg/m3
3332 kPa | 739.8 kg/m3
3814 kPa | 740.2 kg/m3
3824 kPa | 740.1 kg/m3
3837 kPa | 740.2 kg/m3
3847 kPa | 740.3 kg/m3
3862 kPa | 740.2 kg/m3
3876 kPa | 740.1 kg/m3
3887 kPa | 740.3 kg/m3
4382 kPa | 740.6 kg/m3
4686 kPa | 740.8 kg/m3
4709 kPa | 740.9 kg/m3
4730 kPa | 740.8 kg/m3
4749 kPa | 740.9 kg/m3
4854 kPa | 741 kg/m3
4879 kPa | 741 kg/m3
4901 kPa | 741 kg/m3
4924 kPa | 740.9 kg/m3
4947 kPa | 741 kg/m3
4968 kPa | 741.1 kg/m3
4992 kPa | 741.1 kg/m3
5006 kPa | 741.1 kg/m3
5028 kPa | 741 kg/m3
5042 kPa | 741 kg/m3
5058 kPa | 741.1 kg/m3
5077 kPa | 741.1 kg/m3
5094 kPa | 741.2 kg/m3
5117 kPa | 741.1 kg/m3
5136 kPa | 741 kg/m3
5156 kPa | 741.1 kg/m3
5176 kPa | 741.3 kg/m3
5205 kPa | 741.3 kg/m3
5223 kPa | 741.2 kg/m3
5244 kPa | 741.2 kg/m3
5265 kPa | 741.2 kg/m3
5316 kPa | 741.3 kg/m3
5598 kPa | 741.5 kg/m3
5751 kPa | 741.6 kg/m3
5767 kPa | 741.6 kg/m3
5776 kPa | 741.6 kg/m3
5781 kPa | 741.6 kg/m3
5783 kPa | 741.6 kg/m3
5784 kPa | 741.5 kg/m3 and 741.7 kg/m3
5793 kPa | 741.7 kg/m3
5798 kPa | 741.6 kg/m3
5802 kPa | 741.6 kg/m3
5814 kPa | 741.7 kg/m3
5816 kPa | 741.6 kg/m3
5823 kPa | 741.7 kg/m3
5833 kPa | 741.6 kg/m3
5852 kPa | 741.7 kg/m3
5869 kPa | 741.7 kg/m3
5881 kPa | 741.7 kg/m3
5888 kPa | 741.6 kg/m3
5891 kPa | 741.7 kg/m3
5895 kPa | 741.8 kg/m3
5898 kPa | 741.7 kg/m3
5902 kPa | 741.8 kg/m3
5907 kPa | 741.7 kg/m3
5910 kPa | 741.7 kg/m3
5914 kPa | 741.7 kg/m3
5929 kPa | 741.7 kg/m3
6176 kPa | 741.9 kg/m3
6202 kPa | 741.9 kg/m3
6218 kPa | 741.8 kg/m3
6237 kPa | 741.9 kg/m3
6251 kPa | 741.8 kg/m3
6269 kPa | 741.9 kg/m3
6284 kPa | 742 kg/m3
6304 kPa | 741.9 kg/m3
6319 kPa | 742 kg/m3
6335 kPa | 742 kg/m3
6350 kPa | 741.9 kg/m3
6373 kPa | 742.1 kg/m3
6391 kPa | 742.1 kg/m3
6409 kPa | 742 kg/m3
6431 kPa | 742 kg/m3
6452 kPa | 742 kg/m3
6465 kPa | 742.1 kg/m3
6481 kPa | 742 kg/m3
6497 kPa | 742.2 kg/m3
6519 kPa | 742.2 kg/m3
6543 kPa | 742.1 kg/m3
6560 kPa | 742.2 kg/m3
6588 kPa | 742.2 kg/m3
6610 kPa | 742.2 kg/m3
7156 kPa | 742.7 kg/m3
7171 kPa | 742.6 kg/m3
7221 kPa | 742.7 kg/m3
7240 kPa | 742.6 kg/m3
7671 kPa | 742.8 kg/m3
7684 kPa | 742.9 kg/m3
7747 kPa | 743 kg/m3
7758 kPa | 743 kg/m3
7770 kPa | 743 kg/m3
8186 kPa | 743.2 kg/m3
8201 kPa | 743.4 kg/m3
8217 kPa | 743.3 kg/m3
8232 kPa | 743.3 kg/m3
8252 kPa | 743.3 kg/m3
8265 kPa | 743.3 kg/m3
8279 kPa | 743.3 kg/m3
8296 kPa | 743.4 kg/m3
8848 kPa | 743.8 kg/m3
8878 kPa | 743.7 kg/m3
8907 kPa | 743.7 kg/m3
8922 kPa | 743.8 kg/m3
8936 kPa | 743.9 kg/m3
8949 kPa | 743.7 kg/m3
8964 kPa | 743.9 kg/m3
8980 kPa | 743.8 kg/m3
8992 kPa | 743.9 kg/m3
9004 kPa | 743.8 kg/m3
9019 kPa | 743.8 kg/m3
9029 kPa | 743.9 kg/m3
9038 kPa | 743.8 kg/m3
9050 kPa | 743.9 kg/m3
9059 kPa | 743.9 kg/m3
9071 kPa | 743.8 kg/m3
9080 kPa | 743.9 kg/m3
9717 kPa | 744.3 kg/m3
10364 kPa | 744.7 kg/m3
10421 kPa | 744.9 kg/m3
10435 kPa | 744.9 kg/m3
10472 kPa | 744.9 kg/m3
10482 kPa | 744.8 kg/m3
10525 kPa | 744.9 kg/m3
10552 kPa | 744.9 kg/m3
10563 kPa | 744.8 kg/m3
10574 kPa | 745 kg/m3
10588 kPa | 744.9 kg/m3
10597 kPa | 744.9 kg/m3
10608 kPa | 745 kg/m3
10620 kPa | 745 kg/m3
10631 kPa | 745 kg/m3
10646 kPa | 745 kg/m3
10659 kPa | 745 kg/m3
10673 kPa | 745 kg/m3
10999 kPa | 745.3 kg/m3
11564 kPa | 745.6 kg/m3
11578 kPa | 745.6 kg/m3
11593 kPa | 745.6 kg/m3
11608 kPa | 745.6 kg/m3
11694 kPa | 745.7 kg/m3
11712 kPa | 745.6 kg/m3
11728 kPa | 745.8 kg/m3
11741 kPa | 745.7 kg/m3
11759 kPa | 745.7 kg/m3
13134 kPa | 746.6 kg/m3
13157 kPa | 746.7 kg/m3
13176 kPa | 746.7 kg/m3
13196 kPa | 746.7 kg/m3
13216 kPa | 746.6 kg/m3
13236 kPa | 746.7 kg/m3
13256 kPa | 746.6 kg/m3
13276 kPa | 746.7 kg/m3
13296 kPa | 746.7 kg/m3
13358 kPa | 746.8 kg/m3
13379 kPa | 746.8 kg/m3
13400 kPa | 746.9 kg/m3
13421 kPa | 746.8 kg/m3
13438 kPa | 746.8 kg/m3
13465 kPa | 746.8 kg/m3
13489 kPa | 746.9 kg/m3
13507 kPa | 746.8 kg/m3
13528 kPa | 746.8 kg/m3
13546 kPa | 746.8 kg/m3
13574 kPa | 746.9 kg/m3
13613 kPa | 747 kg/m3
14239 kPa | 747.3 kg/m3
14264 kPa | 747.4 kg/m3
14287 kPa | 747.4 kg/m3
14316 kPa | 747.4 kg/m3
14335 kPa | 747.4 kg/m3
14461 kPa | 747.5 kg/m3
15158 kPa | 748 kg/m3
15181 kPa | 747.9 kg/m3
15201 kPa | 748.1 kg/m3
15221 kPa | 748 kg/m3
15259 kPa | 748.1 kg/m3
15288 kPa | 748 kg/m3
15328 kPa | 748 kg/m3
16053 kPa | 748.5 kg/m3
17575 kPa | 749.4 kg/m3
17600 kPa | 749.6 kg/m3
17681 kPa | 749.6 kg/m3
18272 kPa | 750 kg/m3
18327 kPa | 750.1 kg/m3
18353 kPa | 749.9 kg/m3
18410 kPa | 750.1 kg/m3
18436 kPa | 750.1 kg/m3
18466 kPa | 750.1 kg/m3
18497 kPa | 750.2 kg/m3
18520 kPa | 750.2 kg/m3
18543 kPa | 750.1 kg/m3
18605 kPa | 750.2 kg/m3
18628 kPa | 750.2 kg/m3
19272 kPa | 750.6 kg/m3
19319 kPa | 750.6 kg/m3
19342 kPa | 750.7 kg/m3
19377 kPa | 750.7 kg/m3
19413 kPa | 750.7 kg/m3
20535 kPa | 751.4 kg/m3
20578 kPa | 751.3 kg/m3
20601 kPa | 751.5 kg/m3
21429 kPa | 752 kg/m3
21453 kPa | 752 kg/m3
21475 kPa | 751.9 kg/m3
21504 kPa | 752 kg/m3
21533 kPa | 752 kg/m3
21563 kPa | 752.1 kg/m3
21589 kPa | 752 kg/m3
21622 kPa | 752.2 kg/m3
21647 kPa | 752.1 kg/m3
21669 kPa | 752.1 kg/m3
21696 kPa | 752 kg/m3
21719 kPa | 752.2 kg/m3
